Measurements from US20180030001A1, “NEW TRIAZINE COMPOUNDS AS PHOTOSTABILIZING AGENTS” (3V Sigma S.P.A., priority 2016, published 2018).

Experiment: UVA:UVB ratio (radiation absorbed 320-400 nm vs 290-320 nm) of triazine compounds
Format: physicochemical
Settings: versus diethylhexyl butamido triazone and ethylhexyl triazone
Excerpt: Typically, the numerical UV-A/UV-B ratio of these compounds, defined as the ratio between the intensity of the radiation absorbed between 320 nm and 400 nm (UVA fraction) and that absorbed between 290 nm and 320 nm (UVB fraction), is greater than 0.20, and preferably greater than 0.30, whereas in the analogous triazine compounds with a 4-aminobenzoate or 4-aminobenzamide substituent different from the substituents described in Formula (IV), it is below about 0.14.
The UVA:UVB ratio is the ratio between the intensity of the radiation absorbed between 320 nm and 400 nm (UVA fraction) and that absorbed between 290 nm and 320 nm (UVB fraction).

Row | UVA fraction relative to triazine analogues already known | SMILES
1 | at least twice as high | CCCCC(CC)COC(=O)c1ccc(NC(=O)c2ccc(Nc3nc(Nc4ccc(C(=O)Nc5ccc(C(=O)OCC(CC)CCCC)cc5)cc4)nc(Nc4ccc(C(=O)NC(C)(C)C)cc4)n3)cc2)cc1 (stereo not drawn) [Compound of formula (V)]
2 | at least twice as high | CCCCC(CC)COC(=O)c1ccc(NC(=O)c2ccc(Nc3nc(Nc4ccc(C(=O)NC(C)(C)C)cc4)nc(Nc4ccc(C(=O)OCC(CC)CCCC)cc4)n3)cc2)cc1 (stereo not drawn) [Compound of formula (VI)]
3 | at least twice as high | CCCCC(CC)COC(=O)c1ccc(NC(=O)c2ccc(Nc3nc(Nc4ccc(C(=O)OCC(CC)CCCC)cc4)nc(Nc4ccc(C(=O)OCC(CC)CCCC)cc4)n3)cc2)cc1 (stereo not drawn) [Compound of formula (VII)]
